Assay [1] addresses T1, Protein Rev (Human immunodeficiency virus type 1 group M subtype B (isolate HXB2)(HIV-1), UniProt P04618).
T1 sequence (P04618 whole entry): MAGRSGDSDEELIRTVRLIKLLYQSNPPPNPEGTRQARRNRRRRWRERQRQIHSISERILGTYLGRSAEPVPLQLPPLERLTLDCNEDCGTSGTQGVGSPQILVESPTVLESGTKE
The assay is described as follows: blockers of HIV Rev/RRE RNA complex – biochemical, fluorescence polarization, HIV-1, dose response (AID 434976). Further details: species or system Human immunodeficiency virus 1.

In assay [2] the target is T2, Polyadenylate-binding protein 1 (Homo sapiens, UniProt P11940). The assay is described as follows: MLLE domain peptide-binding blockers, IC50 – biochemical, fluorescence polarization, FITC-PAM2 peptide, dose response (AID 602259). The class given is functional. To be noted: read-out: IC50_Mean.
The target of assay [3] is T2, Polyadenylate-binding protein 1. The assay is described as follows: MLLE binding blockers, Cy5 peptide tracer – biochemical, fluorescence polarization, Cy5-PAM2 peptide, secondary, miRNA deadenylation inhibitor project, dose response (AID 602260). The class given is functional. As to conditions: read-out: IC50_Mean.
Assay [4] has as its target T3, Female germline-specific tumor suppressor gld-1 (Caenorhabditis elegans, UniProt Q17339).
T3 sequence (Q17339 whole entry): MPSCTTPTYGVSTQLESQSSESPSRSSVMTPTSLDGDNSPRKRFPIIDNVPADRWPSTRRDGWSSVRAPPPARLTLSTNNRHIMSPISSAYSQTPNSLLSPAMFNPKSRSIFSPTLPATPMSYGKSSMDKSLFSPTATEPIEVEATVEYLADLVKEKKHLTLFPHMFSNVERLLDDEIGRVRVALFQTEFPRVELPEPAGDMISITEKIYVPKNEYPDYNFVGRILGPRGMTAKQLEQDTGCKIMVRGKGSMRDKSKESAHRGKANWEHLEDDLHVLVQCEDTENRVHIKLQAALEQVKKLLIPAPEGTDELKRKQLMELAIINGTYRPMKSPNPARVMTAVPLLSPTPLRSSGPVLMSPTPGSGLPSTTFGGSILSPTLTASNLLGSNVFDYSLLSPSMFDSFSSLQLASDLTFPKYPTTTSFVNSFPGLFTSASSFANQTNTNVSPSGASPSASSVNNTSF
The assay is described as follows: blockers of GLD-1/TGE RNA complex formation – biochemical, fluorescence polarization, C. elegans, dose response (AID 2802).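 Further: fluorescence polarization of labeled TGE RNA bound by purified gld-1 protein.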

In assay [5] the target is T4, Hexokinase HKDC1 (Homo sapiens, UniProt Q2TB90).
T4 sequence (Q2TB90 whole entry): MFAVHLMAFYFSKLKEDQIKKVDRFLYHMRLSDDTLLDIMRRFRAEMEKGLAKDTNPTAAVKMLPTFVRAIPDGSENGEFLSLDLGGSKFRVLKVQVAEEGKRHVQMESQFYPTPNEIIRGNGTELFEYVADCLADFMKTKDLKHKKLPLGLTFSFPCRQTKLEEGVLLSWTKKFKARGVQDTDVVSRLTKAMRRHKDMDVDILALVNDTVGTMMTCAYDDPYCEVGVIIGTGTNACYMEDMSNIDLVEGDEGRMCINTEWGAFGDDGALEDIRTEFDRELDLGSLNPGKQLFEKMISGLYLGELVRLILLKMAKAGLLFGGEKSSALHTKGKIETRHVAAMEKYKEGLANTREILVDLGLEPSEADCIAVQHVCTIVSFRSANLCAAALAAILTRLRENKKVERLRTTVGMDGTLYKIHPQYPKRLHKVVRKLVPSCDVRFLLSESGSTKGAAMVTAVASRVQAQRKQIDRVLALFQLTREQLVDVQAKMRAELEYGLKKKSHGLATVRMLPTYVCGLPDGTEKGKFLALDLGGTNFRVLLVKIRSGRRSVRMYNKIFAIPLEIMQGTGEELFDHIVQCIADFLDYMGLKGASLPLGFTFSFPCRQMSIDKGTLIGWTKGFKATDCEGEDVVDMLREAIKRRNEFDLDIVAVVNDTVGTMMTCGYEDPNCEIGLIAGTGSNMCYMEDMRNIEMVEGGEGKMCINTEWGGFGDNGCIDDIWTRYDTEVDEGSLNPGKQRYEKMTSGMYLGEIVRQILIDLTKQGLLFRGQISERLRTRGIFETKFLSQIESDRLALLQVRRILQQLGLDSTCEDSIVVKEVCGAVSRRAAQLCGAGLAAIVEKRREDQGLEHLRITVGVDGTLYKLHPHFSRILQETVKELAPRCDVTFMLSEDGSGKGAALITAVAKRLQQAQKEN
Nature of the assay: inhibition of HKDC1 glucose phosphorylation – biochemical, W721R variant, dose response (AID 504729). The class given is functional.

The nature of assay [6]: Luminescence Cell-Based Dose Confirmation HTS to Identify Activators of 5'UTR Stem-Loop Driven Alpha-Synuclein mRNA Translation in H4 Neuroglioblastoma Cells. [Related pubchem assays: 1829 (Project Summary), 1814 (Primary HTS)]. Type of assay: functional.
Assay [7] has as its system H4. Nature of the assay: Luminescence Cell-Based Dose Response HTS to Identify Activators of 5'UTR Stem-Loop Driven Prion Protein mRNA Translation in H4 Neuroglioblastoma Cells. [Related pubchem assays: 1829 (Project Summary), 1814 (Primary HTS)]. As to conditions: Homo sapiens. Type of assay: functional.
A short description of assay [8]: Luminescence Cell-Based Dose Response HTS to Identify Activators of Luciferase Translation or Activity in H4 […] Cells. [Related pubchem assays: 1829 (Project Summary), 1814 (Primary HTS)]. Type of assay: functional.
Assay [9] deals with Eukaryotic translation initiation factor 4E (Mus musculus, UniProt P63073). Nature of the assay: blockers of eIF4G binding by eIF4E – biochemical, TR-FRET, dose response (AID 855).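 Further: potency for disrupting eIF4E binding to eIF4GI seen as loss of FRET.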 The class given is functional.
The target in assay [10] is Cytochrome P450 2C9 (Homo sapiens, UniProt P11712).
Assay [11] has as its target T5, Cytochrome P450 1A2 (Homo sapiens, UniProt P05177).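 Further: PubChem cytochrome P450 panel assay, CYP1A2 panel member.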
T5 sequence (P05177 whole entry): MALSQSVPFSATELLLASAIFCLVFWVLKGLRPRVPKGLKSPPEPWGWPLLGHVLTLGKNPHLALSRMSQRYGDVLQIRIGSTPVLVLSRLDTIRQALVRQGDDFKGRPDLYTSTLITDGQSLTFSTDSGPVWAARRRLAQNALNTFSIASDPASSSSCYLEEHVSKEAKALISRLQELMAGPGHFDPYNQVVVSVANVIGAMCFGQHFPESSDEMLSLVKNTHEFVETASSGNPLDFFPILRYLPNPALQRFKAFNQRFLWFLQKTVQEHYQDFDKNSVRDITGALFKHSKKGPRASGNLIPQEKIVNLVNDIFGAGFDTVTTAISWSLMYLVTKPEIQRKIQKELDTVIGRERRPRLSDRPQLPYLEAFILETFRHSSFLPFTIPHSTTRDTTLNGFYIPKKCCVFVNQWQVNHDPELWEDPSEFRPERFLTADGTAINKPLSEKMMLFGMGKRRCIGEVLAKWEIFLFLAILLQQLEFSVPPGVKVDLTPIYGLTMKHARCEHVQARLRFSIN

The target in assay [12] is DNA damage-inducible transcript 3 protein (Mus musculus, UniProt P35639). The class given is functional, Cricetulus griseus.
The target in assay [13] is T6, X-box-binding protein 1 (Homo sapiens, UniProt P17861).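 Further: confirmatory dose-response counter-screen serving a CHOP assay.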
T6 sequence (P17861 whole entry): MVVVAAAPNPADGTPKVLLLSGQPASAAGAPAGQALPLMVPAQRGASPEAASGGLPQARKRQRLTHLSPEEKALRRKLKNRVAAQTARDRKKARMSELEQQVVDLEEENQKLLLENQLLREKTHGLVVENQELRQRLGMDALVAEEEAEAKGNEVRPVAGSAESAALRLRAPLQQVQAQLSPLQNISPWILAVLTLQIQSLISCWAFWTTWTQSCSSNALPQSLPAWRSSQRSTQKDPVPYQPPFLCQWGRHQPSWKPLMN
Type of assay: functional, Cricetulus griseus.

Assay [14] addresses T7, Kappa-type opioid receptor (Homo sapiens, UniProt P41145). The class given is functional.
Assay [15] addresses T7, Kappa-type opioid receptor. The class given is functional. This is another data set of the same source.
Assay [16] has as its target Beta-galactosidase (Escherichia coli, UniProt Q8VNN2). Type of assay: functional.
The target of assay [17] is Heat shock protein HSP 90-alpha (Homo sapiens, UniProt P07900). Type of assay: functional, organism-based.
For assay [18], the system named is Streptococcus. Nature of the assay: GAS UMAA2166 growth inhibition – luminescence, BacTiterGlo, counter-screen for streptokinase expression inhibitor project, dose response (AID 1915).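 Further: potency for reduction of bacterial viability or growth.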 Type of assay: functional, organism-based.
Assay [19] has as its target T8, Streptokinase A (Streptococcus pyogenes serotype M1, UniProt P10520).
T8 sequence (P10520 whole entry): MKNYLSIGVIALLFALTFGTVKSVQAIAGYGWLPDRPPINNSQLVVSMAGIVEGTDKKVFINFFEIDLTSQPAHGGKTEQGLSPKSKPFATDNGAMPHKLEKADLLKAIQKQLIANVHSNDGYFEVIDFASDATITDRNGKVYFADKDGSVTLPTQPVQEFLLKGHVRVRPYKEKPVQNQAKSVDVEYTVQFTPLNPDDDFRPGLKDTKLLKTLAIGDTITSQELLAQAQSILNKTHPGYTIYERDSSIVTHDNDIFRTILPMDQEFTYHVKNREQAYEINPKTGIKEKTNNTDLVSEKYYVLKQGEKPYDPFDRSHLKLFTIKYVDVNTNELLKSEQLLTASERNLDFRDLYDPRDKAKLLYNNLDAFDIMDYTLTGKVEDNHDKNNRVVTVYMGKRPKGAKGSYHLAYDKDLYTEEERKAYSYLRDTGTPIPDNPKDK
The assay is described as follows: viability-normalized secreted streptokinase activity reduction – plasminogen activation absorbance, OD405, dose response (AID 1914).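 Further: secreted streptokinase activity via plasminogen activation per viability signal from cell pellet.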 The class given is functional, Streptococcus pyogenes M1 GAS.

Assay [20] can be described thus: microbe, parasite or virus in culture. Type of assay: functional. As to conditions: Mycobacterium tuberculosis.
Assay [21] deals with Streptococcus sp. 'group A'. The assay is described as follows: Streptococcus pyogenes SK(-)GAS viability under kanamycin – luminescence, BacTiterGlo, confirmation, counter-screen for streptokinase expression inhibitor project, dose response (AID 1900). Type of assay: functional, organism-based.
Assay [22] is described as follows: Luminescence Cell-Based Dose Retest to Confirm Inhibitors of Cancer Stem Cells. [Related pubchem assays (depositor defined):AID2717, AID2721]. The class given is functional. To be noted: Homo sapiens.
The subject of assay [23] is INS1. Nature of the assay: INS-1E survival protection against cytokine death – cell-based, luminescence, retest, dose response (AID 449756).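 Further: cell death triggered by IL-1 beta plus TNF-alpha plus IFN-gamma mixture; protective hits raise ATP signal compared with cytokine alone wells.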 Type of assay: functional. To be noted: Rattus norvegicus.

Activity calls are given as the source filed them.

T2 sequence (P11940 whole entry, the tested form may be a part): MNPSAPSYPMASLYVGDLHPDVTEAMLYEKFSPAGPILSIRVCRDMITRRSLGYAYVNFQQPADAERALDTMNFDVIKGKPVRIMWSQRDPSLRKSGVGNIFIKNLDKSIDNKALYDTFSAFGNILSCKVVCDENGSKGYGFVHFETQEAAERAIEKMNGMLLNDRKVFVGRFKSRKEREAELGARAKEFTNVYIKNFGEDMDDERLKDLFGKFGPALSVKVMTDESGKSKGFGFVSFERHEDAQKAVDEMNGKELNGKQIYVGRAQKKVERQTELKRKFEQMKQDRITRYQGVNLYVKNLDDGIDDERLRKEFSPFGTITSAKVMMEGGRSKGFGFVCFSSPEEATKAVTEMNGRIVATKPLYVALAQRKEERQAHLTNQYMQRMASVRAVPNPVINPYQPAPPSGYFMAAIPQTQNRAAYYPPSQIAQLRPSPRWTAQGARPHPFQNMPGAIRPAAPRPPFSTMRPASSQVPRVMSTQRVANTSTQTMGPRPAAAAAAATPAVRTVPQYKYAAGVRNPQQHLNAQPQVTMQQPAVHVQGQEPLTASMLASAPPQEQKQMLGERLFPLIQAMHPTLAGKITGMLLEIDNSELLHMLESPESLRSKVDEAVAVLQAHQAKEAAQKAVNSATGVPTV
T7 sequence (P41145 whole entry): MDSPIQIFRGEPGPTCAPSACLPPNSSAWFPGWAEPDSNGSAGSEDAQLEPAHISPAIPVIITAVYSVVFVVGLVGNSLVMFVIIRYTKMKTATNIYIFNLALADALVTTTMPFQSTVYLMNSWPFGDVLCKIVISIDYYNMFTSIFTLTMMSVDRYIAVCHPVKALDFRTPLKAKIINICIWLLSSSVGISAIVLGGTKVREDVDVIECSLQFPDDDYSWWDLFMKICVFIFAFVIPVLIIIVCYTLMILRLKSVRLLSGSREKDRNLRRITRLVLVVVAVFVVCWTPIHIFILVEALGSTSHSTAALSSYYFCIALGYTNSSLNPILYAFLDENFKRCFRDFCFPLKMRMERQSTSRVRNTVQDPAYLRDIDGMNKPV
Sequence of Eukaryotic translation initiation factor 4E (P63073 whole entry): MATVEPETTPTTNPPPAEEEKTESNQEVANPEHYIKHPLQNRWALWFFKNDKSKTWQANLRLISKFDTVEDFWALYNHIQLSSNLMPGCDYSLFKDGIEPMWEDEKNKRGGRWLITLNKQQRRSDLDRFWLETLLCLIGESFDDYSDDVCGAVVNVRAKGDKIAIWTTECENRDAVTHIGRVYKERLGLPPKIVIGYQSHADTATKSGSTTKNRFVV
Sequence of Cytochrome P450 2C9 (P11712 whole entry): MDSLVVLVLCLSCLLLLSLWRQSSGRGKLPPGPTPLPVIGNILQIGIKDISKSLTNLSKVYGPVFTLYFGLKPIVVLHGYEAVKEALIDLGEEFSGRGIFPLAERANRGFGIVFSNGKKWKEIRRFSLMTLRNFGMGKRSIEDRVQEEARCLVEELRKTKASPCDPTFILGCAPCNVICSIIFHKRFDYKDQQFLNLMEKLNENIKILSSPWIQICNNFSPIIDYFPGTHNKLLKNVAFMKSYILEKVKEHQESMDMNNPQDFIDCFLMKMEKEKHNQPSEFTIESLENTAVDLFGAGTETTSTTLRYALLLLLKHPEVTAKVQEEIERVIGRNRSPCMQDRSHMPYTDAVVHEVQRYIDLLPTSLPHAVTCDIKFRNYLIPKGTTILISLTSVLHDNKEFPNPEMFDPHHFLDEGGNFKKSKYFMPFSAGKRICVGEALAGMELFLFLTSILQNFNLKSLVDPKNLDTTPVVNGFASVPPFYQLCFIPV
Sequence of DNA damage-inducible transcript 3 protein (P35639 whole entry): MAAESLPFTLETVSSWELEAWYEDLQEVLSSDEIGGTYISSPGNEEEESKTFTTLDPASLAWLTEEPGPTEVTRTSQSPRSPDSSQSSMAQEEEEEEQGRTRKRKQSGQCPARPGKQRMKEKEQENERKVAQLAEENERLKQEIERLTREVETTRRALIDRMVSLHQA
Sequence of Beta-galactosidase (Q8VNN2 whole entry): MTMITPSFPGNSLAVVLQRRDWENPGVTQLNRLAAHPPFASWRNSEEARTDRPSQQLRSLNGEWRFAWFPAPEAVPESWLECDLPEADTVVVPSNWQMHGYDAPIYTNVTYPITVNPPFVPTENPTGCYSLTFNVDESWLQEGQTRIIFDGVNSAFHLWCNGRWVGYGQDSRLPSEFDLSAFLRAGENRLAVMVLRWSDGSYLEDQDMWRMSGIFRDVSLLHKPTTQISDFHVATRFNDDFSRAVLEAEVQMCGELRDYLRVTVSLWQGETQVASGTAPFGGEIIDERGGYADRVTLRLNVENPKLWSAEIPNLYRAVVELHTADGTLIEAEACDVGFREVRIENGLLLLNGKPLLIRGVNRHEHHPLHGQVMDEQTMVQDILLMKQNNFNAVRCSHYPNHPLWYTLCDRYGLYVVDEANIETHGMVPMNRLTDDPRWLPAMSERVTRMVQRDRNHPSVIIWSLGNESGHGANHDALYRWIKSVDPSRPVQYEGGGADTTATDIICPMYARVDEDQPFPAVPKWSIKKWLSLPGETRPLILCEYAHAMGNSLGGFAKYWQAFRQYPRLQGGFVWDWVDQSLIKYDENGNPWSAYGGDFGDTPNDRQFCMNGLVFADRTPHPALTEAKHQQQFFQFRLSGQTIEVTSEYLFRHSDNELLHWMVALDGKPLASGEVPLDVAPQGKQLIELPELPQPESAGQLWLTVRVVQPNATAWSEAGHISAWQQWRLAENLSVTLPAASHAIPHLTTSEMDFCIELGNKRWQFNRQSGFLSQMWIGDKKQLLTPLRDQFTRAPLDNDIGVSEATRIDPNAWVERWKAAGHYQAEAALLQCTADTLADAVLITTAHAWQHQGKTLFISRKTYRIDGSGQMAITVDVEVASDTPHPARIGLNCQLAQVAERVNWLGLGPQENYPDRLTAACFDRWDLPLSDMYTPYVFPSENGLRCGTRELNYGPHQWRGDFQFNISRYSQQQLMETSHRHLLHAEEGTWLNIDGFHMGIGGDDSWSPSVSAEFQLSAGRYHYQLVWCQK

On to `CC(=O)Nc1ccc2nc3ccccc3nc2c1`, for which the IC50 is 14.8 µM (not active) in [1], 44.9 µM (inactive) in assay [2], > 66 µM (inactive) in assay [3] and 5.86 µM (active) in assay [4].

On to `CCCc1nc2oc3c(NCC4CCCO4)ncnc3c2c2c1COC(C)(C)C2` (stereo not given), for which, in assay [5], the IC50 is 33.2 µM (inactive).

`Cc1ccc(NC2c3ncccc3C(=O)N2c2ccccc2C)cc1C` (stereo not given): the EC50 in assay [6] is 12 µM (active); in [7], 9.38 µM (active); in assay [8], 16.5 µM (active). Further, the results for the IC50 in [5] and in [9] were 11.6 µM (active) and 9.59 µM (active), respectively.

As for `Cc1ccc(-c2nn(C)c(=O)c3ccccc23)cc1CNC(=O)Cn1nc(-c2ccccc2)c2ccccc2c1=O`, the figures for the AC50 in [10] and in [11] were 11.2 µM (inconclusive) and 31.6 µM (inconclusive), respectively. For the same molecule, the “Absolute IC50 (CHOP)” value in [12] stood at 10 µM. Moreover, the “Absolute IC50 (XBP1)” value in assay [13] is 10 µM.

As to `COc1ccc(CN2C(=O)c3cccnc3C2O)cc1` (stereo not given), the IC50 in assay [5] is 21.5 µM (inactive).

Consider `O=C(C#Cc1ccccc1)c1ccc([N+](=O)[O-])cc1`, for which the results for the IC50 in assay [14] and in assay [15] were 16.3 µM and 9.68 µM (active), respectively. Besides, the EC50 in assay [16] was > 31.5 µM (inactive). Further, the AC50 in assay [17] was 1.38 µM (active).

`Cc1ccccc1NC(=N)Nc1ccccc1C`: the IC50 in assay [1] was 8.31 µM (active); in assay [2], 19.8 µM (active); in assay [3], > 66 µM (inactive); in assay [4], 5.2 µM (active).

With `C(=N\Nc1ncnc2sc3c(c12)CCC3)/c1cccs1`, the EC50 in [18] is 19.5 µM (active); in assay [19] it was > 150 µM (not active); in assay [21], 15.8 µM (active). Besides, the CC50 in assay [20] was 15.7 µM (active). Moreover, the AC50 was 5.38 µM (active) in [22] and 5.3 µM (active) in [23]. Moreover, the “Absolute IC50 (XBP1)” value in assay [13] stood at 10 µM.

The values are drawn from ChEMBL document CHEMBL1201862, “PubChem BioAssay data set” (2004).
